Results reported in EPA's ToxRefDB 2.

How the values were obtained:
mouse [1] = settings: Subchronic oral toxicity in rodents, b6c3f1, Feed, dose end: 13 week, group: systemic
rabbit = settings: Prenatal developmental toxicity study, new zealand white, Oral, Gavage/Intubation, dose end: 19 GD
mouse [2] = settings: Multigenerational reproductive toxicity study, cd1, Oral, Feed, dose end: 2 generation
rat [3] = settings: Subchronic oral toxicity in rodents, fischer, Feed, dose end: 13 week, group: systemic
mouse [4] = settings: Carcinogenicity; b6c3f1; Oral; Feed; dose end: 103 week; group: systemic; systemic / in life observation / clinical signs / [other] + systemic / pathology microscopic / ovary / atrophy + systemic / pathology …
rat [5] = settings: Carcinogenicity; fischer; Oral; Feed; dose end: 103 week; group: systemic; systemic / in life observation / clinical signs / muscle fasciculation + systemic / in life observation / clinical signs / skeletal muscle …
mouse [6] = settings: Sub-acute repeat dose toxicity, b6c3f1, Oral, Feed, dose end: 14 day, group: systemic
rat [7] = settings: Sub-acute repeat dose toxicity, fischer, Oral, Feed, dose end: 14 day, group: systemic
mouse [8] = settings: Prenatal developmental toxicity study, cd1, Oral, Feed, dose end: 15 GD
[9] = systemic / in life observation / body weight / body weight + systemic / in life observation / body weight / body weight gain + systemic / in…
[10] = group: developmental, developmental / developmental malformation / general / [other]
[11] = group: maternal, reproductive / reproductive performance / resorptions / resorptions + systemic / in life observation / body weight / body weight + systemic…
[12] = group: offspring, systemic / in life observation / clinical signs / cannibalism
[13] = group: offspring, systemic / in life observation / clinical signs / cannibalism + developmental / offspring survival late / [other] / [other] + systemic / in …
[14] = group: parental, systemic / in life observation / body weight / body weight + systemic / in life observation / clinical signs / cannibalism + systemic / in …
[15] = group: parental, systemic / in life observation / food consumption / food consumption + systemic / in life observation / water consumption / water …
[16] = group: reproductive, reproductive / offspring survival early / birth index / birth index + reproductive / reproductive performance / dystocia / dystocia + …
[17] = group: reproductive, reproductive / reproductive performance / estrous cycle / abnormal
[18] = systemic / in life observation / clinical signs / [other]
[19] = systemic / in life observation / clinical signs / [other] + systemic / in life observation / clinical signs / fur (altered appearance) + …
[20] = systemic / in life observation / body weight / body weight gain + systemic / in life observation / clinical signs / [other] + systemic / in …
[21] = systemic / in life observation / clinical signs / lethargy + systemic / in life observation / clinical signs / fur (altered appearance) + …
[22] = group: developmental, systemic / in life observation / body weight / fetal weight
[23] = group: maternal, reproductive / offspring survival early / dead fetuses / dead fetuses

NC(=O)N/N=C/c1ccc([N+](=O)[O-])o1 [Nitrofurazone]
LOAEL (mouse [1]; [9]): > 188 mg/kg/day
NEL (mouse [1]; [9]): 46.5 mg/kg/day
NOAEL (mouse [1]; [9]): ≥ 188 mg/kg/day
LEL (mouse [1]; systemic / in life observation / clinical signs / [other] + systemic / in life observation / clinical signs / excitation + systemic / in …): 93 mg/kg/day
LEL (rabbit; [10]): 20 mg/kg/day
LOAEL (rabbit; [10]): 20 mg/kg/day
NEL (rabbit; [10]): 15 mg/kg/day
NOAEL (rabbit; [10]): 15 mg/kg/day
LOAEL (rabbit; group: maternal, reproductive / reproductive performance / resorptions / resorptions): 20 mg/kg/day
NEL (rabbit; [11]): 5 mg/kg/day
NOAEL (rabbit; [11]): 15 mg/kg/day
LEL (rabbit; group: maternal, systemic / in life observation / body weight / body weight): 10 mg/kg/day
LEL (mouse [2]; [12]): 15 mg/kg/day
NEL (mouse [2]; [12]): < 15 mg/kg/day
LOAEL (mouse [2]; [13]): > 112 mg/kg/day
NOAEL (mouse [2]; [13]): ≥ 112 mg/kg/day
LOAEL (mouse [2]; [14]): > 112 mg/kg/day
NOAEL (mouse [2]; [14]): ≥ 112 mg/kg/day
LEL (mouse [2]; [15]): 15 mg/kg/day
NEL (mouse [2]; [15]): < 15 mg/kg/day
LOAEL (mouse [2]; [16]): > 112 mg/kg/day
NOAEL (mouse [2]; [16]): ≥ 112 mg/kg/day
LEL (mouse [2]; [17]): 15 mg/kg/day
NEL (mouse [2]; [17]): < 15 mg/kg/day
NEL (rat [3]; systemic / organ weight / liver / relative to body weight + systemic / in life observation / body weight / body weight + systemic / in life …): 7.5 mg/kg/day
LOAEL (rat [3]; systemic / pathology microscopic / testes / degeneration): 15.5 mg/kg/day
NOAEL (rat [3]; systemic / pathology microscopic / testes / degeneration + systemic / in life observation / body weight / body weight + systemic / in life …): 7.5 mg/kg/day
LEL (rat [3]; systemic / pathology microscopic / testes / degeneration + systemic / organ weight / liver / relative to body weight): 15.5 mg/kg/day
LEL (mouse [4]): 14 mg/kg/day
LOAEL (mouse [4]): 14 mg/kg/day
NEL (mouse [4]): < 14 mg/kg/day
NOAEL (mouse [4]): < 14 mg/kg/day
LEL (rat [5]): 11 mg/kg/day
LOAEL (rat [5]): 11 mg/kg/day
NEL (rat [5]): < 11 mg/kg/day
NOAEL (rat [5]): < 11 mg/kg/day
LOAEL (mouse [6]; [18]): 94.5 mg/kg/day
NOAEL (mouse [6]; [18]): < 94.5 mg/kg/day
LEL (mouse [6]; [19]): 94.5 mg/kg/day
NEL (mouse [6]; [19]): < 94.5 mg/kg/day
LOAEL (rat [7]; [20]): 125 mg/kg/day
NOAEL (rat [7]; [20]): 62.5 mg/kg/day
LEL (rat [7]; [21]): 31.5 mg/kg/day
NEL (rat [7]; [21]): < 31.5 mg/kg/day
LEL (mouse [8]; [22]): 81.7 mg/kg/day
LOAEL (mouse [8]; [22]): > 81.7 mg/kg/day
NEL (mouse [8]; [22]): 41.2 mg/kg/day
NOAEL (mouse [8]; [22]): ≥ 81.7 mg/kg/day
LEL (mouse [8]; [23]): 41.2 mg/kg/day
LOAEL (mouse [8]; [23]): 41.2 mg/kg/day
NEL (mouse [8]; [23]): 13.6 mg/kg/day
NOAEL (mouse [8]; [23]): 13.6 mg/kg/day
